Reference: patent EP1151753B1, “PREVENTIVE AND THERAPEUTIC AGENTS FOR ARTERIOSCLEROSIS” (CCI CORPORATION, priority 1999, dated 2000)

Experiments:
[1] = Biochemical test of blood and measurement of body weight, cholesterol-loaded rabbit model; type: in vivo, New Zealand White (NZW) type rabbits; details: cholesterol-loaded NZW rabbits
Experimental: (§1) Now, the pharmacogenic effect of the agent of this invention for preventing and curing arteriosclerosis will be described specifically below with reference to a pharmacological test using high cholesterol-loaded rabbits and the WHHL (Watanabe heritable hyperlipidemic) rabbits forming a model of the familial high-cholesterol blood disease. The data were wholly reported by the average ± standard error (SE) and the significant differences among separate groups were determined by the Student's t-test. The risk factor, p < 0.05, was rated as forming a significance of difference.
In the test, female and male New Zealand White (NZW) type rabbits (SPF: Kitayama Labels K.K.) which were seven weeks old at the time of arrival at the laboratory were subjected to quarantine and two weeks' domestication and visually inspected as to the general condition and, after the absence of abnormality was confirmed, put to use. The body weights at the time of starting administration (at the age of nine weeks) were in the range of 1.8 - 2.2 kg in the case of male rabbits and in the range of 1.6 - 2.0 kg in the case of female rabbits. Throughout the entire duration of the test, the animals were raised as accommodated one each in hanger cages of aluminum installed on a stainless steel rack inside a clean feeding chamber set at a temperature in the range of 20 - 26°, a relative humidity in the range of 40 - 70%, a number of ventilations in the range of 10 - 20 turns/hour, and an illumination time within the range of 12 hours (7.00 - 19:00). They were fed on a commercially available radioactively sterilized solid feed (a product containing 1% of cholesterol, made by Oriental Kobo K.K. and sold under the product code of "RC4") and they were left freely drinking the tap water delivered by an automatic water supplying device.
The dosage of TMG was set at 800 mg/head/day. The TMG was solved in reagent grade ethanol. The produced solution was sprayed on the 1% cholesterol-containing feed and the wet feed was left drying in the air. A mixed feed was prepared so as to contain 800 mg of TMG per 100 g of the feed. The mixed feed was given to the rabbits every morning at a rate of 100 g/day per head for 12 weeks for the sake of attaining oral consumption of the TMG. The feed for the control group was obtained by spraying ethanol alone on a feed containing 1% cholesterol and air-drying the wet feed. It was given to the rabbits of the control group at a rate of 100 g/day per heat for 12 weeks.
A control group and a TMG-administration group were formed; the control group of a total of six heads composed of three males and three females and the TMG-administration group of a total of eight heads composed of four males and four females. These animals were apportioned to the two groups randomly and nevertheless elaborately so as to avoid confusion of the children of one brood in either group to the fullest possible extent and equalize as much as permissible the average body weights and the average total cholesterol numbers in blood serum of the two groups with the body weights and the total cholesterol numbers found at the time of completion of the domestication.
About 6 ml of blood was taken from the heart or the auricular artery of a rabbit experiencing 12 hours' fast prior to the start of the administration, within 4 and 8 weeks of undergoing administration, and on the final day of administration (12th week). The blood was centrifuged to separate blood serum and the blood serum was analyzed for the items shown in Table 1 by the use of an automatic analyzer (made by Hitachi. Ltd. And sold under the product code of "736-20"). The body weight of each rabbit was measured at the rate of once a week throughout the entire duration of the administration.

[2] = Biochemical test of blood and measurement of body weight, WHHL rabbit model; type: in vivo, WHHL type rabbits; details: WHHL rabbits
Experimental: as §1
1. Animal used and feeding conditions In the test, female and male WHHL type rabbits (SPF: Kitayama Labels K.K.) which were eight weeks old at the time of arrival at the laboratory were subjected to quarantine and domestication and visually inspected as to the general condition and, after the absence of abnormality was confirmed, put to use. The body weights at the time of starting administration (at the age of nine weeks) were in the range of 1.5 - 1.9 kg in the case of male rabbits and in the range of 1.4 - 1.8 kg in the case of female rabbits. Throughout the entire duration of the test, the animals were raised as accommodated one each in hanger cages of aluminum installed on a stainless steel rack inside a clean feeding chamber set at a temperature in the range of 20 - 26°, a relative humidity in the range of 40 - 70%, a number of ventilations in the range of 10 - 20 turns/hour, and an illumination time within the range of 12 hours (7.00 - 19:00). They were fed on a commercially available radioactively sterilized solid feed (made by Oriental Kobo K.K. and sold under the product code of "RC4") and they were left freely drinking the tap water delivered by an automatic water supplying device. 2. Setting dosage and method of administration The dosage of TMG was set at 800 mg/head/day. The TMG was solved in reagent grade ethanol. The produced solution was sprayed on the feed and the wet feed was left drying in the air. A mixed feed was prepared so as to contain 800 mg of TMG per 100 g of the feed. The mixed feed was given to the rabbits every morning at a rate of 100 g/day per head for 27 weeks for the sake of attaining oral consumption of the TMG. The feed for the control group was obtained by spraying ethanol alone on a feed and air-drying the wet feed. It was given to the rabbits of the control group at a rate of 100 g/day per head for 27 weeks. 3. Formation of groups and number of animals A control group and a TMG-administration group were formed; each group consistingof threemales and three females, namely a total of six rabbits. These animals were apportioned to the two groups randomly and nevertheless elaborately so as to avoid confusion of the children of one brood in either group to the fullest possible extent and equalize as much as permissible the average body weights and the average total cholesterol numbers in blood serum of the two groups with the body weights and the total cholesterol numbers found at the time of completion of the domestication. 4. […] The blood was centrifuged to separate blood serum and the blood serum was analyzed for the items shown in Table 5 by the use of an automatic analyzer (made by Hitachi. Ltd. and sold under the product code of "736-20"). The body weight of each rabbit was measured at the rate of once a week throughout the entire duration of the administration.

[3] = blood serum, TMG 800 mg/head/day in feed, 12th week of administration, average ± SE
[4] = TMG 800 mg/head/day for 12 weeks
[5] = TMG 800 mg/head/day for 27 weeks
[6] = blood serum, TMG 800 mg/head/day in feed, average ± SE

Cc1c(C)c2c(c(C)c1O)CCC(C)(C[C@H]1O[C@H](CO)[C@@H](O)[C@H](O)[C@H]1O)O2 (stereo partly drawn) [TMG, 2-(α-D-glucopyranosyl)methyl-2,5,7,8-tetramethyl chroman-6-ol]
ALB [1, 3]: 2.3 ± 0.1 g/dL
ALP [1, 3]: 174 ± 15 mU/ml
ChE [1, 3]: 0.35 ± 0.06 U/ml
GOT [1, 3]: 19.7±2.2 mU/ml
GPT [1, 3]: 72.9 ± 9.1 mU/ml
LDH [1, 3]: 147 ± 31 mU/ml
PL [1, 3]: 851 ± 42 mg/dL
T-CHO [1, 3]: 2628 ± 148 mg/dL
TG [1, 3]: 250 ± 76 mg/dL
activity of lowering the blood serum lipids (T-CHO, TG, PL, LDL-CHO) [1, 4]: no activity
biochemical test of blood [1, 4]: no sign of abnormality
Body weight ([1]; TMG 800 mg/head/day in feed, 12th week of administration, average ± SE): 2.89 ± 0.11 kg
rise of the GOT, an index of the development of hepatopathy ([1]; TMG 800 mg/head/day, versus control group): significantly repressing the injury
activity of lowering the blood serum lipids (T-CHO, TG, PL, LDL-CHO) [2, 5]: no activity
biochemical test of blood [2, 5]: no sign of abnormality
Body weight ([2]; TMG 800 mg/head/day in feed, average ± SE): 2.89 ± 0.11 kg
ALB [2, 6]: 2.4 ± 0.1 g/dL
ALP [2, 6]: 87± 5 mU/ml
ChE [2, 6]: 0.19 ± 0.05 U/ml
GOT [2, 6]: 26.0 ± 11.1 mU/ml
GPT [2, 6]: 59.7 ± 12.3 mU/ml
LDH [2, 6]: 97 ± 4 mU/ml
PL [2, 6]: 459 ± 52 mg/dL
T-CHO [2, 6]: 934 ± 49 mg/dL
TG [2, 6]: 169 ± 23 mg/dL
